We go through 18 compounds from patent US20200031785A1, “METHODS FOR TREATING CHRONIC PAIN AND OPIOID DEPENDENCE USING ADENYLYL CYCLASE INHIBITORS” (Purdue Research Foundation, priority 2017, published 2020).

Like-named read-outs stand apart in the source and are kept apart here.

One data set deals with T1, hAC1 (Homo sapiens, UniProt Q08828).
T1 construct: expressed in transfected cells
Nature of the data set: Cyclic AMP accumulation in HEK cells stably expressing AC1, stimulated with A23187 (HTRF). In kind it is cell-based. The following applies: for inhibition at 30 µM: HEK293. The method, then: The development and mechanistic characterization of AC1-selective small molecule inhibitors is believed to provide novel non-opioid weapons in the war on chronic pain. We identified our initial hits via screening 10,000 selected compounds from the Life Chemicals collection. The screen was carried out using HEK cells stably expressing AC1 (HEK-AC1) and cyclic AMP accumulation was stimulated using the Ca^2+ ionophore, A23187 to selectively activate AC1. Compounds with potential chemical liabilities and PAINs were removed from further evaluation (Baell and Holloway, J. Med. Chem. 2010, 53, 2719-2740).
(§1) Fresh powders of several robust inhibitors (>90% inhibition) were evaluated in multiple confirmation assays assessing the dose response relationship for inhibiting AC1 and AC8 activity. Confirmation assays used A23817 to selectively stimulate recombinant AC1 or AC8 in the HEK cell background (Cumbay and Watts (2001), J. Pharmacol Exp Ther 297:1201-1399). This approach takes advantage of one unique regulatory property of AC1 for the development of selective inhibitors. Both AC1 and AC8 are robustly activated by Ca^2+/CaM under a variety of conditions, whereas the effects of Ca^2+/CaM on AC3 are modest and conditional requiring activation by G proteins. Previous studies have identified unique Ca^2+/CaM binding domains as one possible site of interaction to achieve AC1 (vs. AC8) selectivity (Masada et al., 2012, Biochemistry 51:7917-7929).
(§2) The primary technology we employed to measure cAMP accumulation was a homogenous time-resolved fluorescence (HTRF) assay, the same technology utilized in the primary screen. […] This could be due to either 1) the chemical scaffolds are exquisitely selective toward the AC family of enzymes or 2) the library has not been screened against a sufficient number of targets. The answer is likely a combination of the two; nonetheless, the lack of biological data to date bodes well for these series and any potential off-target promiscuity.
(§3) Human embryonic kidney (HEK) cells stably expressing AC1, AC8, or AC1 with the MOR were cultured in Dulbecco's Modified Eagle Medium (Life Technologies, Grand Island, N.Y.) supplemented with 5% bovine calf serum (Hyclone, Logan, Utah), 5% fetal clone I (Hyclone), Antibiotic-Antimycotic (Life Technologies), and G418 (Invivogen, San Diego, Calif.) (HEK-AC1), or hygromycin B (Fisher Scientific, Pittsburgh, Pa.) (HEK-AC8), or G418 and puromycin (Sigma-Aldrich) (HEK-AC1/MOR). Chinese hamster ovary (CHO) cells expressing the MOR (CHO-MOR) in the PathHunter® β-Arrestin GPCR assay platform were purchased from DiscoveRx (Freemont, Calif.). Cells were grown in Ham's F12 media supplemented with 1 mM L-glutamine (Thermo Scientific, West Palm Beach, Fla.), 10% fetal bovine serum (Hyclone), 50 U/ml penicillin, 50 μg/ml streptomycin (Life Technologies), G418 and hygromycin B. Cells were grown and frozen as previously described (J. M. Conley, et al., J Vis Exp, e51218 (2014)).
(§4) Cyclic AMP accumulation was measured as previously described (Brust, et al., J. Pharmacol. Exp. Ther. 352, 480-493(2015)). Briefly, cryopreserved cells were thawed, resuspended in optiMEM (Life Technologies), and plated in white, flat bottom, low-volume, tissue culture-treated 384 well plates (PerkinElmer, Shelton, Conn.). Plates with cells were incubated in a 37° C. humidified incubator for 1 h. Inhibitors were added and plates were incubated at room temperature for 30 min followed by the addition of AC stimulants in the presence of 500 μM IBMX. Cells were incubated at room temperature for 1 h and cAMP accumulation was measured using Cisbio's cAMP kit (Cisbio Bioassays, Bedford, Mass.) according to the manufacturer's instructions.
(Time-resolved FRET reads energy transfer from a long-lived donor to a nearby acceptor.)

A further data set addresses T2, hAC8 (Homo sapiens, UniProt P40145).
T2 construct: expressed in transfected cells
As to the kind of experiment: Cyclic AMP accumulation in HEK cells stably expressing AC8, stimulated with A23187 (HTRF). The following applies: for inhibition at 30 µM: HEK293. In kind it is cell-based. The method, then:
as §1, §2, §3, §4

The target in the next data set is T3, hAC2 (Homo sapiens, UniProt Q08462).
T3 construct: expressed in transfected cells
T3 sequence (Q08462 whole entry): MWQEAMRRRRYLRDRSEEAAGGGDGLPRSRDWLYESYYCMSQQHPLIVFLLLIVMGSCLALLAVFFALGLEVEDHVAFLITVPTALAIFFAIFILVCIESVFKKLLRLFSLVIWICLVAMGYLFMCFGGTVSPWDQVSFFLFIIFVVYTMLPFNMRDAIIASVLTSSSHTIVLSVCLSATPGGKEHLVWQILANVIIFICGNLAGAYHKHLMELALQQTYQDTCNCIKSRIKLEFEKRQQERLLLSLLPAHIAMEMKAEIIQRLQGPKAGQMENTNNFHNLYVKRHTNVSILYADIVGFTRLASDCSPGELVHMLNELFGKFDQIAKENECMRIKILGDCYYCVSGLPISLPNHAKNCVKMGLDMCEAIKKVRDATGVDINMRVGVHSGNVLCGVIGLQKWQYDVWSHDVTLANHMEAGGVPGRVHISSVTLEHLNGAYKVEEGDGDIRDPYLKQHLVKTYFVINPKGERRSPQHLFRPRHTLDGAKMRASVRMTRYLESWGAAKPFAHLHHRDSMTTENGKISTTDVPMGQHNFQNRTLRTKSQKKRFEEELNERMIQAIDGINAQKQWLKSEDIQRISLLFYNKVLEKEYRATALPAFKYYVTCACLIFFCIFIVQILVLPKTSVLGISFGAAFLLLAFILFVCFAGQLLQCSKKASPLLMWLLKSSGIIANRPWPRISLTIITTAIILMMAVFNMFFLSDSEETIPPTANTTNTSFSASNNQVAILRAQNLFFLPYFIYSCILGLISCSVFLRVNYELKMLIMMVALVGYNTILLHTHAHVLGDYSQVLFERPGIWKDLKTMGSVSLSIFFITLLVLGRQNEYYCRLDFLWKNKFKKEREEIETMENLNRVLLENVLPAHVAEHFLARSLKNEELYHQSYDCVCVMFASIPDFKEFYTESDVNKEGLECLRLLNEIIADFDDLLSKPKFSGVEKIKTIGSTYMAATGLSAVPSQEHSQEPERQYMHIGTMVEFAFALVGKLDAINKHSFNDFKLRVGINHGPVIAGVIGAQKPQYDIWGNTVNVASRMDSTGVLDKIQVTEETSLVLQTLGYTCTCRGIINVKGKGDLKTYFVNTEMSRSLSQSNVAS
Nature of the data set: Cyclic AMP accumulation in stable HEK-AC2 cells, stimulated with 100 nM PMA. The data set is classed as cell-based. On the procedure:
as §4

In the next data set the target is T4, hAC5 (Homo sapiens, UniProt O95622).
T4 construct: expressed in transfected cells
T4 sequence (O95622 whole entry): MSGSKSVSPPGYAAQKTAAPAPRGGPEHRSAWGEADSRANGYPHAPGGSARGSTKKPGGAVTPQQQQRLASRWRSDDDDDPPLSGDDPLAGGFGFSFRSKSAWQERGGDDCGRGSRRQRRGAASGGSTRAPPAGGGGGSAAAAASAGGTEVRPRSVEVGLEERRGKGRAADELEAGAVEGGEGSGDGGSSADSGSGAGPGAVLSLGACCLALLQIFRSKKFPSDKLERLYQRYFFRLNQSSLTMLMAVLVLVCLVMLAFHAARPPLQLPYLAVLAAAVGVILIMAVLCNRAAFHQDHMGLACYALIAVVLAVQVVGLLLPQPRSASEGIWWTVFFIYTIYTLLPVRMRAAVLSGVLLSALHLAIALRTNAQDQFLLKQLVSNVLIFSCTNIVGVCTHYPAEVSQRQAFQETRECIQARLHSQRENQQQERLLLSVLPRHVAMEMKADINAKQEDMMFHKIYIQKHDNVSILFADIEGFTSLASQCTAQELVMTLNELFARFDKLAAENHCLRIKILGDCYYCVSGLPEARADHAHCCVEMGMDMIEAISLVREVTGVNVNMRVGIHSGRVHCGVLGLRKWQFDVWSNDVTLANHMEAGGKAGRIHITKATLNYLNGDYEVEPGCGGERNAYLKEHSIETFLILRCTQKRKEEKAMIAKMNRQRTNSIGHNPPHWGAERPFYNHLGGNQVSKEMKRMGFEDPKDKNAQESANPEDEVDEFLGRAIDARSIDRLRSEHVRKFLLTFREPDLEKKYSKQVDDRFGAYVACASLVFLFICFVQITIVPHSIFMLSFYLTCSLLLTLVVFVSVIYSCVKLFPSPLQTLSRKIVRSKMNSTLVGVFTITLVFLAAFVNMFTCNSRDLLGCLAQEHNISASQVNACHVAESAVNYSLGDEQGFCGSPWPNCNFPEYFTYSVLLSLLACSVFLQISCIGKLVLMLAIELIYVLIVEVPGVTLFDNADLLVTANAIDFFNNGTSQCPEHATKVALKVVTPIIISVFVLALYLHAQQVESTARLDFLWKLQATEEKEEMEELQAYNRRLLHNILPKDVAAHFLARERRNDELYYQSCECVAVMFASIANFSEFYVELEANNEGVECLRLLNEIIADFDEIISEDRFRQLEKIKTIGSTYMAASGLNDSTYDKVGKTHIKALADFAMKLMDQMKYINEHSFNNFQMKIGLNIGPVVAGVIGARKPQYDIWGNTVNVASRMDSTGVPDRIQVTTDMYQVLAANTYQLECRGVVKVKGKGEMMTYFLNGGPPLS
As to the kind of experiment: Cyclic AMP accumulation in stable HEK-AC5 cells, stimulated with 300 nM forskolin. The data set is classed as cell-based. The following applies: % inhibition at 30 μM, 300 nM forskolin-stimulated, negative = potentiated response, n = 2. The method, then:
as §4

The mark [1] stands for this setting: HEK-AC1 cells, read-out: HEK-AC1 IC50.
Where [2] appears, read: HEK-AC8 cells, read-out: HEK-AC8 IC50.

The term inhibition denotes how much of the control response was suppressed. One may read the IC50 as the concentration that inhibits the measured activity by half.

T2 sequence (P40145 whole entry): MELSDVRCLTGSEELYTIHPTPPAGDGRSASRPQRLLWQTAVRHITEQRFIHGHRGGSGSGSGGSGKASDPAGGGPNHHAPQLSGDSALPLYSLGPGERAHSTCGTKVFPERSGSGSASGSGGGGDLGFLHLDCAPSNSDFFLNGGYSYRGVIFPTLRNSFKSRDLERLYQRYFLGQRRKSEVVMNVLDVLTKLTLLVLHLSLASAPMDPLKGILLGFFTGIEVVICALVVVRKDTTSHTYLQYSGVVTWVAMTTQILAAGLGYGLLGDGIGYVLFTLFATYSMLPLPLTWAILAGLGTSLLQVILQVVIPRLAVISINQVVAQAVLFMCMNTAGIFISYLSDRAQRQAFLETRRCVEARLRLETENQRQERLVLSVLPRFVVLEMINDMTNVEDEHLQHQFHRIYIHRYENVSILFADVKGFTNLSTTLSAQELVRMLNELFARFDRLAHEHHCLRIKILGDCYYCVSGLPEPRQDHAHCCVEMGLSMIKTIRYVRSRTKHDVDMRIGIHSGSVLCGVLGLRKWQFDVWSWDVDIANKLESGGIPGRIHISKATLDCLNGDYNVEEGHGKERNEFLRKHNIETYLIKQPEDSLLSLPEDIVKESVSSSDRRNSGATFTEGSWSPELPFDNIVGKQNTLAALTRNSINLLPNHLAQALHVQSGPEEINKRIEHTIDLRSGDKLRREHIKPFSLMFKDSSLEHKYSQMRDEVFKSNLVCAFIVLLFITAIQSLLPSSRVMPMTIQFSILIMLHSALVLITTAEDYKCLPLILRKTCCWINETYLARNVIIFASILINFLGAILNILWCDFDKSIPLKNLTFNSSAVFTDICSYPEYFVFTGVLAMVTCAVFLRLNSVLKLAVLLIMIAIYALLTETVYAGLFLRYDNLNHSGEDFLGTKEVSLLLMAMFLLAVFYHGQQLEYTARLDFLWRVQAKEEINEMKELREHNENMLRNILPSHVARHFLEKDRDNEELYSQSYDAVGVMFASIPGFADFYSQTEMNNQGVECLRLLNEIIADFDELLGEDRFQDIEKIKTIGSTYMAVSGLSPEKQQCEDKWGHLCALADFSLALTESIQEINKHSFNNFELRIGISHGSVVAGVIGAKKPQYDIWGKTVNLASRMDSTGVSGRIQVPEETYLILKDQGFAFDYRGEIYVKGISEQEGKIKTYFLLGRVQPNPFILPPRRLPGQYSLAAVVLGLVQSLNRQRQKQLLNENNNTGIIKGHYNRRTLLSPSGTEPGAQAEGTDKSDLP
T1 sequence (Q08828 whole entry): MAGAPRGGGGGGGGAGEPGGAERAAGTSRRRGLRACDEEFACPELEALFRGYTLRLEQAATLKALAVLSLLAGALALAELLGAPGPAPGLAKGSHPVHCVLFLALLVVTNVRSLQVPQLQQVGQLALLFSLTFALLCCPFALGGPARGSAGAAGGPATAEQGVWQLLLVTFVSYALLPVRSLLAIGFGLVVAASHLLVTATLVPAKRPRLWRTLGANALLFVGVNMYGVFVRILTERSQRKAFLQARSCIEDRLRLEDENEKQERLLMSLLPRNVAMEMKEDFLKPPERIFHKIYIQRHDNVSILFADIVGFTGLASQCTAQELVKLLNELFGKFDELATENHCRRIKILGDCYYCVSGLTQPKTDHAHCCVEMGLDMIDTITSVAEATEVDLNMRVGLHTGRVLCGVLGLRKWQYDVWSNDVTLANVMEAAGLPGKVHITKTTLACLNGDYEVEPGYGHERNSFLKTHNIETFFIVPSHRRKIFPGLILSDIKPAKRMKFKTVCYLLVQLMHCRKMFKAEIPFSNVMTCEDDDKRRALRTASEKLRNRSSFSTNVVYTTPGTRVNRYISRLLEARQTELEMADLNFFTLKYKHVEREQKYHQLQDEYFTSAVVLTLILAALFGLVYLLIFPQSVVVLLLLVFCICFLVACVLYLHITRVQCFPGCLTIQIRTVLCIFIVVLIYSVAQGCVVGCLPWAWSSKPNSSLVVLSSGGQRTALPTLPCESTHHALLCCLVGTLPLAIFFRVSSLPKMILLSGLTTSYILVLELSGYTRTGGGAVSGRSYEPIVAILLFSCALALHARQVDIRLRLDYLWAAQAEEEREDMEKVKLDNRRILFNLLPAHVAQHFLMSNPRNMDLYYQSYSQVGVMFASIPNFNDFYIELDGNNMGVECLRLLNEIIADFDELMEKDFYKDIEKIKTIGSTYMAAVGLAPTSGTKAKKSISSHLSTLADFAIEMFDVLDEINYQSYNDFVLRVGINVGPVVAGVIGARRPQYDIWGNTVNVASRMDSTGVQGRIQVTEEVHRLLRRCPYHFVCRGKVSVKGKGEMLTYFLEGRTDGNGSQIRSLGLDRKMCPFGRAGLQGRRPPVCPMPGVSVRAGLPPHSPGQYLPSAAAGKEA
Experimental for AC1-HEK cells: Cell viability assays were conducted with HEK-AC1 cells following plating and compound incubation protocols identical to the procedures described above in “Cyclic AMP assays in cells”. Cell viability was measured as a percentage of vehicle using 2% Triton X-100 (Sigma-Aldrich) as a control. The CellTiter-Glo® Luminescent Cell Viability Assay kit from Promega (Madison, Wis.) was employed to assess cell viability according to the manufacturer's instructions. Luminescence counts were measured using a Synergy 4.

Turning to `O=C(Nc1nnc(-c2ccc3c(c2)CCCC3)o1)c1ccc(F)cc1` [AC10056, 4-fluoro-N-(5-(5,6,7,8-tetrahydronaphthalen-2-yl)-1,3,4-oxadiazol-2-yl)benzamide], the values for the inhibition at 30 µM at hAC1 (HEK-AC1 cells) and on hAC8 (HEK-AC8 cells) were 98 ± 1% and 74 ± 8%, respectively. For the same compound, the IC50 on hAC1 (setting [1]) is 5.9 ± 1 µM; on hAC8 (setting [2]), 22 ± 4 µM.
The matching figures for `O=C(Nc1nnc(-c2ccc3c(c2)CCCC3)o1)c1cccc(F)c1` [AC10059, 3-fluoro-N-(5-(5,6,7,8-tetrahydronaphthalen-2-yl)-1,3,4-oxadiazol-2-yl)benzamide]: 99 ± 0.4%, 90 ± 1%, 1 ± 0.3 µM and 4.2 ± 0.2 µM.
On to `O=C(Nc1nnc(-c2ccc(F)cc2)o1)c1ccccc1F` [AC10060, 2-fluoro-N-(5-(4-fluorophenyl)-1,3,4-oxadiazol-2-yl)benzamide], for which the values for the inhibition at 30 µM on hAC1 (HEK-AC1 cells) and on hAC8 (HEK-AC8 cells) were 12 ± 4% and 13 ± 7%, respectively. Moreover, at hAC2 (HEK-AC2 cells, 10 μM, (−) = negative inhibition (potentiated response)), the inhibition at 10 µM worked out at 3 ± 6%.
Turning to `O=C(Nc1nnc(-c2ccc3c(c2)CCCC3)o1)c1ccc(Cl)cc1` [AC10061, 4-chloro-N-(5-(5,6,7,8-tetrahydronaphthalen-2-yl)-1,3,4-oxadiazol-2-yl)benzamide], the inhibition at 30 µM stood at 99 ± 1% on hAC1 (HEK-AC1 cells) and 90 ± 0.4% on hAC8 (HEK-AC8 cells).
For the compound `CCc1ccc(C(=O)Nc2nnc(-c3ccc4c(c3)CCCC4)o2)cc1` [AC10062, 4-ethyl-N-(5-(5,6,7,8-tetrahydronaphthalen-2-yl)-1,3,4-oxadiazol-2-yl)benzamide], the inhibition at 30 µM on hAC1 (HEK-AC1 cells) turned out to be 98 ± 1%; on hAC8 (HEK-AC8 cells) it was 88 ± 2%. The IC50 at hAC1 (setting [1]) is 1.2 ± 0.2 µM; at hAC8 (setting [2]), 2 ± 0.4 µM.
On the same counts, the results for `O=C(Nc1nnc(C2CCCCC2)o1)c1cccc(-c2ccccc2)c1` [AC10063, N-(5-cyclohexyl-1,3,4-oxadiazol-2-yl)-[1,1′-biphenyl]-3-carboxamide] are 99 ± 1%, 92 ± 1%, 1.4 ± 0.2 µM and 1.4 ± 0.4 µM.
The matching figures for `O=C(Nc1nnc(-c2ccc(F)cc2)o1)c1cccc(-c2ccccc2)c1` [AC10064, N-(5-(4-fluorophenyl)-1,3,4-oxadiazol-2-yl)-[1,1′-biphenyl]-3-carboxamide]: 98 ± 1%, 84 ± 3%, 2.3 ± 0.4 µM and 7 ± 1 µM.
The matching figures for `Cc1cc(C(=O)Nc2nnc(-c3ccc(F)cc3)o2)cc(C(F)(F)F)c1` [AC10065, N-(5-(4-fluorophenyl)-1,3,4-oxadiazol-2-yl)-3-methyl-5-(trifluoromethyl)benzamide]: 99 ± 0.5%, 89 ± 2%, 1.4 ± 0.2 µM and 4.1 ± 0.4 µM.
For the compound `O=C(Nc1nnc(-c2ccc(F)cc2)o1)c1ccc(-c2ccccc2)cc1` [AC10066, N-(5-(4-fluorophenyl)-1,3,4-oxadiazol-2-yl)-[1,1′-biphenyl]-4-carboxamide], the results for the inhibition at 30 µM on hAC1 (HEK-AC1 cells) and at hAC8 (HEK-AC8 cells) were 97 ± 1% and 90 ± 10%, respectively. The IC50 at hAC1 (setting [1]) is 2.8 ± 0.6 µM; at hAC8 (setting [2]) it was 7.5 ± 1 µM.
On the same counts, the results for `Cc1ccc(C(=O)Nc2nnc(-c3ccc(F)cc3)o2)cc1C(F)(F)F` [AC10067, N-(5-(4-fluorophenyl)-1,3,4-oxadiazol-2-yl)-4-methyl-3-(trifluoromethyl)benzamide] are 93 ± 5%, 75 ± 12%, 4.6 ± 2 µM and 9 ± 5 µM.
The matching figures for `COc1cc(C(=O)Nc2nnc(-c3ccc(F)cc3)o2)cc(C(F)(F)F)c1` [AC10068, N-(5-(4-fluorophenyl)-1,3,4-oxadiazol-2-yl)-3-methoxy-5-(trifluoromethyl)benzamide]: 97 ± 1%, 80 ± 9%, 5 ± 1 µM and 6 ± 1 µM.
The matching figures for `Cc1cc(C(=O)Nc2nnc(C3CCCCC3)o2)cc(C(F)(F)F)c1` [AC10069, N-(5-cyclohexyl-1,3,4-oxadiazol-2-yl)-3-methyl-5-(trifluoromethyl)benzamide]: 96 ± 1%, 83 ± 7%, 9.6 ± 1 µM and 15 ± 2 µM.
Turning to `COc1cc(C(=O)Nc2nnc(C3CCCCC3)o2)cc(C(F)(F)F)c1` [AC10070, N-(5-cyclohexyl-1,3,4-oxadiazol-2-yl)-3-methoxy-5-(trifluoromethyl)benzamide], the inhibition at 30 µM on hAC1 (HEK-AC1 cells) stood at 90 ± 2%; at hAC8 (HEK-AC8 cells), 79 ± 11%. The IC50 turned out to be 4.8 ± 1 µM on hAC1 (setting [1]) and 9 ± 1 µM at hAC8 (setting [2]).
On the same counts, the results for `Cc1ccc(C(=O)Nc2nnc(C3CCCCC3)o2)cc1C(F)(F)F` [AC10071, N-(5-cyclohexyl-1,3,4-oxadiazol-2-yl)-4-methyl-3-(trifluoromethyl)benzamide] are 100 ± 1%, 83 ± 7%, 3.7 ± 1 µM and 7 ± 1 µM.
On the same counts, the results for `Cc1cc(C(=O)Nc2nnc(-c3ccc4c(c3)CCCC4)o2)cc(C(F)(F)F)c1` [AC10072, 3-methyl-N-(5-(5,6,7,8-tetrahydronaphthalen-2-yl)-1,3,4-oxadiazol-2-yl)-5-(trifluoromethyl)benzamide] are 85 ± 4%, 78 ± 13%, 9.1 ± 3 µM and 2.4 ± 0.02 µM.
On the same counts, the results for `Cc1ccc(C(=O)Nc2nnc(-c3ccc4c(c3)CCCC4)o2)cc1C(F)(F)F` [AC10073, 4-methyl-N-(5-(5,6,7,8-tetrahydronaphthalen-2-yl)-1,3,4-oxadiazol-2-yl)-3-(trifluoromethyl)benzamide] are 64 ± 8%, 65 ± 12%, 26 ± 11 µM and 13 ± 2 µM.
Regarding `COc1cc(C(=O)Nc2nnc(-c3ccc4c(c3)CCCC4)o2)cc(C(F)(F)F)c1` [AC10074, 3-methoxy-N-(5-(5,6,7,8-tetrahydronaphthalen-2-yl)-1,3,4-oxadiazol-2-yl)-5-(trifluoromethyl)benzamide], the inhibition at 30 µM was 85 ± 3% at hAC1 (HEK-AC1 cells) and 79 ± 6% at hAC8 (HEK-AC8 cells). Besides, the IC50 on hAC1 (setting [1]) is 9.4 ± 1 µM; on hAC8 (setting [2]), 10 ± 0.4 µM.
For the compound `CC1CC(C)CN(S(=O)(=O)c2ccc(C(=O)Nc3nnc(-c4cccs4)o3)cc2)C1` (stereo not shown) [F0559-0346], the “Selectivity AC1 vs AC8” value at hAC1 (AC8 IC50/AC1 IC50, in the absence of AC8 IC50, estimate based on IC50 ≥30 μM) is given as 2-fold. Also, the “hAC1 % Inhib.” value at hAC1 (stable HEK cell line, A23187-stimulated cAMP accumulation, n ≥ 3) amounted to 99 ± 1%. Further, the IC50 on hAC1 (stable HEK cell line, A23187-stimulated cAMP accumulation, n ≥ 3, read-out: hAC1 IC50) was determined as 9.1 ± 2 µM; at hAC8 (stable HEK cell line, A23187-stimulated cAMP accumulation, n ≥ 3, read-out: hAC8 IC50) it was 17 ± 6 µM. Further, the “hAC8 % Inhib.” value on hAC8 (% inhibition at 30 μM (negative values indicate a potentiated response)) was found to be 74 ± 13%. Moreover, the “hAC2 % Inhib.” value on hAC2 (% inhibition at 30 μM, 100 nM PMA-stimulated, negative = potentiated response, n = 2) is listed as −6%. At hAC5, the “hAC5 % Inhib.” value is reported as 4%. The “Viability % Vehicle” value in the data set on AC1-HEK cells was determined as 118 ± 2 % Vehicle.
